Key:
[1] = tested on: Eurasian watermilfoil; assay: Eurasian watermilfoil aquaria trial, biomass 4 weeks after treatment; settings: 8 hr exposure
[2] = tested on: cyanophyta (blue-green algae); assay: Toxicity experiment on algae in Morrison Lake site water (chlorophyll-a, visual observations, total algae cell density); format: cell-based
Method: (§1) Five formulations were prepared and tested. The formulations included various pesticides used singularly, a protein surfactant blend used singularly, and pesticides used in combination with a protein surfactant blend. The tests were conducted on cyanophyta (blue-green algae) sampled from Morrison Lake located in Ionia County, Mich. The properties that were tested included the chlorophyll-a concentrations, cell densities, visual observations, and partial application label rates of chelated elemental copper and sodium carbonate peroxyhydrate. The initial chlorophyll-a concentration was determined to be 27.4 μg chlorophyll a/L. The initial water characteristics are listed in table 1. […]
(§2) The formulation tested was sodium carbonate peroxyhydrate and the exposure period was 10 days.
(§3) The algae were exposed to three concentrations in 500 mL flasks. The experiments were initiated using 300 mL of site water. The toxicity experiment was initiated by exposing the algae to 7.4, 22.1, and 36.9 mg sodium carbonate peroxyhydrate/L. Three replicates of each exposure concentration, along with three replicates of untreated controls, were tested. […]

[3] = tested on: Anabaena sp.; assay: Toxicity experiment on algae in Morrison Lake site water, cell density of Anabaena sp.; format: cell-based
Method: as §1, §2, §3

[4] = tested on: Aphanizomenon sp.; assay: Toxicity experiment on algae in Morrison Lake site water, cell density of Aphanizomenon sp.; format: cell-based
Method: as §1, §2, §3

SMILES	regrowth of Eurasian watermilfoil ([1]; 0.1 mg ai/L, 2 WAT)	injury to Eurasian watermilfoil ([1]; 0.1 mg ai/L, initial)	reducing Eurasian watermilfoil biomass ([1]; 0.2 mg ai/L, 4 WAT)	Avg. Day 4 Chlorophyll-a ([2]; 7.4 mg/L (20 lbs/acre-ft)) [µg/L]	Avg. Day 10 Chlorophyll-a ([2]; 7.4 mg/L (20 lbs/acre-ft)) [µg/L]	Avg. Day 4 Chlorophyll-a ([2]; 22.1 mg/L (60 lbs/acre-ft)) [µg/L]	Avg. Day 10 Cell Density, Total algae ([2]; 22.1 mg/L (60 lbs/acre-ft))	Avg. Day 10 Chlorophyll-a ([2]; 22.1 mg/L (60 lbs/acre-ft)) [µg/L]	Avg. Day 4 Cell Density, Total algae ([2]; 36.9 mg/L (100 lbs/acre-ft))	Avg. Day 4 Chlorophyll-a ([2]; 36.9 mg/L (100 lbs/acre-ft)) [µg/L]	Avg. Day 10 Cell Density, Total algae ([2]; 36.9 mg/L (100 lbs/acre-ft))	Avg. Day 10 Chlorophyll-a ([2]; 36.9 mg/L (100 lbs/acre-ft)) [µg/L]	concentration of sodium carbonate peroxyhydrate needed for algae control ([2]; sodium carbonate peroxyhydrate applied alone) [ppm]	Avg. Day 4 Cell Density, Anabaena sp. ([3]; 7.4 mg/L (20 lbs/acre-ft))	Avg. Day 10 Cell Density, Anabaena sp. ([3]; 7.4 mg/L (20 lbs/acre-ft))	Avg. Day 4 Cell Density, Anabaena sp. ([3]; 22.1 mg/L (60 lbs/acre-ft))	Avg. Day 4 Cell Density, Aphanizomenon sp. ([4]; 7.4 mg/L (20 lbs/acre-ft))	Avg. Day 10 Cell Density, Aphanizomenon sp. ([4]; 7.4 mg/L (20 lbs/acre-ft))	Avg. Day 4 Cell Density, Aphanizomenon sp. ([4]; 22.1 mg/L (60 lbs/acre-ft))
CCOC(=O)C(Cl)Cc1cc(-n2nc(C)n(C(F)F)c2=O)c(F)cc1Cl (stereo not shown) [Carfentrazone-ethyl, Ethyl 2-chloro-3-[2-chloro-4-fluoro-5-[4-(difluoromethyl)-4,5-dihydro-3-methyl-5-oxo-1H-1,2,4-trizol-1-yl)phenyl]propanoate]	regrowth was noted	initial injury observed	effective at reducing Eurasian watermilfoil biomass	–	–	–	–	–	–	–	–	–	–	–	–	–	–	–	–
O=C([O-])[O-].O=C([O-])[O-].OO.OO.OO.[Na+].[Na+].[Na+].[Na+] [Sodium Carbonate Peroxyhydrate, sodium carbonate peroxyhydrate]	–	–	–	22.5	8.6	12.5	<1 × 10^3 cells of/mL	2.7	<1 × 10^3 cells/mL	7.9	<1 × 10^3 cells of/mL	<2	22.7	8.9 × 10^4 cells/mL	4.1 × 10^4 cells of/mL	1.8 × 10^4 cells/mL	1.1 × 10^3 cells/mL	2.8 × 10^4 cells of/mL	6.5 × 10^4 cells/mL

Reference: patent US10010076B2, “Plant control composition containing peptide enhancing agent” (Arch Chemicals, Inc., priority 2013, dated 2018)
